Experimental data as given in EP2871962B1, “WOOD PROTECTION AGAINST MICROORGANISMS BY LACCASE-CATALYSED IODINATION” (EMPA Eidgenössische Materialprüfungs- und Forschungsanstalt, priority 2012, dated 2013).
Several values for one entry are separate records, joined by “and”; a condition that tells them apart may be missing. Equal values may be shown once.

What was measured:
[1] = tested on: Aureobasidium pullulans; test: Growth inhibition by iodinated and non-iodinated phenols on agar plates (Example 2); type: cell-based; details: ± standard deviation, n = 6; for inhibition at 1000 µM: 1mM in 2% malt extract agar; for inhibition at 2000 µM: 2mM in 2% malt extract agar; for inhibition at 4000 µM: 4mM in 2% malt extract agar
Experimental: (§1) Vanillin and ethyl-vanillin (4 mM) were incubated in the presence of commercial T. versicolor laccase (250 mg per L), 0.1 mM mediator ABTS and 50 mM potassium iodide in citrate-phosphate buffer (pH 5.0) for 20 h at room temperature. The reaction vessels with a liquid volume of 1 L were aerated with pressurized air through a frit. Reaction products were extracted by addition of 250 mL ethyl-acetate, thorough mixing and subsequent separation of the organic phase. The solvent was removed in a rotary evaporator at 50°C under vacuum until solid products were obtained. Reaction products were re-dissolved in ethyl-acetate and analysed by HPLC-MS.
(§2) For biotests, iodo-vanillin and iodo-ethyl-vanillin were dissolved to a concentration of 0.4 M in DMSO (stock solution). The non-iodinated reference compounds (educts) vanillin and ethyl-vanillin were dissolved to a concentration of 0.1 M in ethanol. All compounds were evaluated on agar plates (Ø 90mm). The compounds were added to 2% malt extract agar after autoclaving to final concentrations of 1, 2 and 4 mM, respectively. Control plates contained similar amounts of DMSO or ethanol as added with stock solutions. Supplemented agar plates were inoculated in the centre with a mycelium agar disc (9-mm diameter) taken from the submargins of 14-day old cultures of the basidiomycetes Oligoporus placenta, Gloephyllum trabeum, Coniophora puteana, Trametes versicolor and the ascomycete Aureobasidium pullulans. Plates were incubated at 22 °C and 70% RH. The radial fungal growth was estimated by measuring the colony diameter, and the growth inhibition was expressed as percentage reduction of this value after similar incubation times. Growth inhibition data of 6 replicate plates per compound/control were arcsine transformed prior to statistical analysis (ANOVA) and back transformed to numerical values for visualization. Means were separated using Tukey's HSD (honestly significant difference) test at significance levels with P values of <0.05 and <0.001. The statistical package used for all analyses was SPSS (version 17.0; SPSS Inc., Chicago, IL).

[2] = tested on: Coniophora puteana; test: as above; type: cell-based; details: ± standard deviation, n = 6, read-out: Growth inhibition, C. puteana; for inhibition at 1000 µM: 1mM in 2% malt extract agar; for inhibition at 2000 µM: 2mM in 2% malt extract agar; for inhibition at 4000 µM: 4mM in 2% malt extract agar
Experimental: as §1, §2

[3] = tested on: Gloephyllum trabeum; test: as above; type: cell-based; details: Gloeophyllum trabeum, ± standard deviation, n = 6, read-out: Growth inhibition, G. trabeum; for inhibition at 1000 µM: 1mM in 2% malt extract agar; for inhibition at 2000 µM: 2mM in 2% malt extract agar; for inhibition at 4000 µM: 4mM in 2% malt extract agar
Experimental: as §1, §2

[4] = tested on: Oligoporus placenta; test: as above; type: cell-based; details: Rhodonia placenta, ± standard deviation, n = 6, read-out: Growth inhibition, O. placenta; for inhibition at 1000 µM: 1mM in 2% malt extract agar; for inhibition at 2000 µM: 2mM in 2% malt extract agar; for inhibition at 4000 µM: 4mM in 2% malt extract agar
Experimental: as §1, §2

[5] = tested on: Trametes versicolor; test: as above; type: cell-based; details: ± standard deviation, n = 6, read-out: Growth inhibition, T. versicolor; for inhibition at 1000 µM: 1mM in 2% malt extract agar; for inhibition at 2000 µM: 2mM in 2% malt extract agar; for inhibition at 4000 µM: 4mM in 2% malt extract agar
Experimental: as §1, §2

[6] = tested on: Trametes versicolor laccase; test: Laccase-catalysed oxidation of iodide to tri-iodide with redox mediators (absorbance at 353 nm); type: biochemical
Experimental: The enzyme used in the study was a commercial laccase from Trametes versicolor (Sigma-Aldrich). […] Reactions were performed in transparent polymethyl methacrylate (PMMA) cuvettes or polystyrene micro titer plates. Change in absorbance (ΔA) at 420nm was recorded in intervals of 10sec for 3min. Samples with very high activities were diluted 10-fold with ddH2O before using them in the assay. Volumetric activities were calculated using an extinction coefficient (ε) of 0.036µmol^-1 1 cm^-1 (36000mol^-1 1 cm^-1) (22), according to the following equation (Δt in min, V in µl):
The laccase-catalysed oxidation of iodide (I^-) to iodine (I2) was monitored by the formation of triiodide (I3^-) at 353nm (laccase activity 0.12U ml^-1, 50mM iodide, citrate buffer pH 4.5, extinction coefficient of I3^- ε = 28000 mol^-1 1 cm^-1) (24, 17). […] Well-known synthetic (ABTS) and natural (acetosyringone [ACS], 4-hydroxybenzoic acid [HBA]) laccase mediators were tested (25, 26). […] The pH optima for mediator-enhanced oxidation of iodide were determined using the McIlvain citrate-phoshate buffer series.

[7] = tested on: A. pullulans, C. picea, C. herbarum and D. pinicola; test: Biotests 2: blue stain test of treated wood (EN 152-2, modified); type: cell-based; details: 6 weeks of incubation, mean of stain categories 0-5 ±SE, n = 6, Mediator = ACS (50 µM); for Blue stain discoloration, Leached: wood batch 2, leached (EN 84); for Blue stain discoloration, Non-leached: wood batch 2, non-leached
Experimental: (§3) Wood specimens (batch 1: 10 x 10 x 5 mm, length x width x height used in the biotests 1 and batch 2: 20 x 15 x 10 mm used in the biotests 2), free of defects, were extracted longitudinally from boards of Norway spruce trees grown in Switzerland, in order to minimize the influence of natural variability. All specimens were conditioned at 23C°(±1°C) and 50% (±5%) relative humidity (RH) until they reached an equilibrium moisture content of approximately 8-10%. Prior to the wood treatment the specimens were sterilized by autoclaving for 20min at 121°C(±1°C).
The enzymatic wood iodination and polymerisation were carried out by dipping three wood specimens of batch 1 in 30ml or 12 wood specimens of batch 2 in 200ml reaction solution (pH 4-6) containing one of the phenolic compounds (4mM), or potassium iodide (1 or 50mM) in the presence of laccase ([…]) for 18h at room temperature. Furthermore, to test the suitability of HBA (5mM) as mediator some additional experiments were performed. The chemical preservative VP 7/ 260a containing IPBC and propiconazole as active agents was used as a benchmark with a final concentration of 5% (v/v). The wood specimens were treated and used in the biological tests, with the following modifications: • Control = Wood treated with buffer • L = Wood treated with laccase alone • L-M = Wood treated with laccase and mediator • Iso = Wood treated with isoeugenol • Iso-L = Wood treated with isoeugenol and laccase • Iso-L-M = Wood treated with isoeugenol, laccase and mediator • Thy = Wood treated with thymol • Thy-L = Wood treated with thymol and laccase • Thy-L-M = Wood treated with thymol and laccase and mediator • Ix = Wood treated with 1 or 50mM iodide (x = concentration of iodide) • Ix-L = Wood treated with 1 or 50mM iodide and laccase • Ix-L-M = Wood treated with 1 or 50mM iodide, laccase and mediator • VP7 = Wood treated with VP 7/ 260a (IPBC and propiconazole)
After the reaction all wood specimens of batch 1 had undergone a leaching procedure comprising five cycles of incubation in ddH2O (liquid volume min. 10 times the specimen volume, 100rpm, room temperature, 24h) and water exchange. Half of the wood specimens of batch 2 were exposed to leaching for two weeks including nine steps of water changing according to EN 84 (29), the other half was used without leaching in biotests.
The resistance of the treated wood against blue stain and wood decay fungi was determined in biotests 2 according to the European standards EN 152-2 (30) and EN 113 (31) with slight modifications. The EN 152 is a classical test for blue staining, originally intended to determine the effectiveness of a preservative treatment against blue stain in service. The treated wood samples were dipped into a spore suspension of A. pullulans, C. picea, C. herbarum and D. pinicola (cfu: > 10^5) and placed horizontally in a Kolle flask containing vermiculite (18g) which was inoculated additionally with 40ml of the spore suspension. The incubated specimens were stored in an incubation room at 22°C and 70% RH (6 weeks). After incubation the surface was evaluated by classifying the percentage of blue-stain discolouration from 0 to 5 according to Thwaites et al. (32) (Table 1). Table 1: Determination of the blue stain discoloration

[8] = tested on: O. placenta; test: Biotests 2: mini-wood block decay test (comparable with EN 113), mass loss; type: cell-based, Oligoporus placenta; details: wood batch 2, non-leached and leached, 12 weeks incubation; numbers only in Figure 2
Experimental: as §3
(§4) The enzymatic wood iodination and polymerisation were carried out by dipping three wood specimens of batch 1 in 30ml or 12 wood specimens of batch 2 in 200ml reaction solution (pH 4-6) containing one of the phenolic compounds (4mM), or potassium iodide (1 or 50mM) in the presence of laccase (10U ml^-1) and either 10µM ABTS for batch 1 or 100µM ACS for batch 2 under shaking (100rpm) for 18h at room temperature. […]
(§5) The treated wood was aseptically added to fully colonised Petri dishes (135mm diameter, 2% malt extract agar (MEA)) by O. placenta and T. versicolor respectively and incubated at 22C° and 70% RH. The ability of the wood-decay fungi to degrade the wood was determined gravimetrically after incubation periods of 6 and 12 weeks and expressed as mass loss (%) according to EN 113 (31): Mass loss(%) = (m0 −m1)/(m0)⋅100 [formula] […]

[9] = tested on: T. versicolor; test: as above; type: cell-based, Trametes versicolor; details: wood batch 2, non-leached and leached, 12 weeks incubation; numbers only in Figure 2
Experimental: as §3, §4, §5

[10] = tested on: A. alternata; test: Growth inhibition on supplemented malt extract agar plates (Example 1); type: cell-based; details: 2% MEA; phenolic derivatives 4mM, VP 7/ 260a 5% (v/v); without wood; ±SE, n = 3
[11] = tested on: D. pinicola; test: as above; type: cell-based, Discula pinicola; details: 2% MEA; phenolic derivatives 4mM, VP 7/ 260a 5% (v/v); without wood; ±SE, n = 3
Experimental: (§6) In addition to the mentioned biotests 2 the antimicrobial activity of the reaction derivatives without wood was evaluated on agar plates (5), excluding the laccase-catalysed iodine solution. It was assumed that the iodine molecules would react with starch from malt to form polyiodide chains, which would prevent the antimicrobial effect (33). The laccase catalysis of the phenols was performed under shaking for 18h at room temperature as described above and the phenolic derivatives were added to 2% MEA after autoclaving to a final concentration of 4mM. The fungicide VP 7/ 260a were added to a concentration of 5% (v/v). The supplemented Petri dishes were inoculated in the centre with a mycelium agar disc (5mm diameter) taken from the sub-margin of 14 day old cultures of the ascomycetes A. pullulans and D. pinicola and the basidiomycetes O. placenta and T. versicolor. The fungal growth was estimated by measuring the colony diameter and the growth inhibition was expressed as % of reference grown on non-supplemented malt agar.

[12] = tested on: O. placenta; test: as above; type: cell-based, Oligoporus placenta; details: 2% MEA; phenolic derivatives 4mM, VP 7/ 260a 5% (v/v); without wood; ±SE, n = 3
Experimental: as §6

[13] = tested on: T. versicolor; test: as above; type: cell-based, Trametes versicolor; details: 2% MEA; phenolic derivatives 4mM, VP 7/ 260a 5% (v/v); without wood; ±SE, n = 3
Experimental: as §6

| Compound | inhibition at 1000 µM [2] [%] | inhibition at 2000 µM [2] [%] | inhibition at 4000 µM [2] [%] | inhibition at 1000 µM [3] [%] | inhibition at 2000 µM [3] [%] | inhibition at 1000 µM [4] [%] | inhibition at 2000 µM [4] [%] | inhibition at 4000 µM [4] [%] | inhibition at 1000 µM [5] [%] | inhibition at 2000 µM [5] [%] | inhibition at 4000 µM [5] [%] | further results |
| --- | --- | --- | --- | --- | --- | --- | --- | --- | --- | --- | --- | --- |
| COc1cc(C=O)cc(I)c1O [5-Iodo-Vanillin (commercial), 4-hydroxy-3-iodo-5-methoxybenzaldehyde] | 66.4 | 65.1 | 56.5 | 40.9 | 37.3 | 17.7 | 22.5 | 9.06 | 78.5 | 82 | 82.9 | inhibition at 1000 µM [1]: 1.36 ± 1.4%; inhibition at 2000 µM [1]: 7.31%; inhibition at 4000 µM [1]: 1.51 ± 2.4%; inhibition at 4000 µM [3]: 38.1% |
| CCn1c(=NN=c2sc3cc(S(=O)(=O)O)ccc3n2CC)sc2cc(S(=O)(=O)O)ccc21 [ABTS, 2,2-azino-bis(3-ethylbenzothiazoline-6-sulfonic acid)] |  |  |  |  |  |  |  |  |  |  |  | laccase-catalysed tri-iodide formation ([6]; pH 4, 10µM mediator): 0.13 µM/min/mg |
| COc1cc(C(C)=O)cc(OC)c1O [ACS, acetosyringone] |  |  |  |  |  |  |  |  |  |  |  | laccase-catalysed tri-iodide formation ([6]; pH 5, 50µM mediator): 0.89 µM/min/mg |
| CCOc1cc(C=O)ccc1O [Ethylvanillin] | 0 | 21.1 ± 18.3 | 31.2 ± 21.2 | 15.8 | 23.9 | 0 | 0 | 0 | 10.2 | 29.9 | 11.4 |  |
| O=C(O)c1ccc(O)cc1 [HBA, 4-hydroxybenzoic acid] |  |  |  |  |  |  |  |  |  |  |  | function as mediator ([6]; data not shown): not to have a function as mediator |
| [I-].[K+] [I1, potassium iodide] |  |  |  |  |  |  |  |  |  |  |  | Blue stain discoloration, Leached [7]: 3.7 ±0.4; Blue stain discoloration, Non-leached [7]: 2.2 ±0.4 |
| Cc1ccc(C(C)C)c(O)c1 [Thy, thymol] |  |  |  |  |  |  |  |  |  |  |  | Blue stain discoloration, Leached [7]: 3.5 and 3.5 ±0.3; Blue stain discoloration, Non-leached [7]: 2.5 and 2.5 ±0.6; mass loss of wood caused by O. placenta (result in words) [8]: minor effect; mass loss of wood caused by T. versicolor (result in words) [9]: minor effect; Growth inhibition [%] on agar plate compared to control, A. alternata [10]: 100 ±0.0%; Growth inhibition [%] on agar plate compared to control, D. pinicola [11]: 100 ±0.0%; Growth inhibition [%] on agar plate compared to control, O. placenta [12]: 100 ±0.0%; Growth inhibition [%] on agar plate compared to control, T. versicolor [13]: 100 ±0.0% |
| COc1cc(C=O)ccc1O [Vanillin, 4-hydroxy-3-methoxybenzaldehyde] | 18.2 ± 31.6 | 24.2 | 61.5 | 2.19 ± 1 | 13.4 | 0 | 11.8 ± 8.5 | 55.3 | 6.59 ± 4.2 | 18.8 | 42 | inhibition at 1000 µM [1]: 0%; inhibition at 2000 µM [1]: 8.52 ± 14.8%; inhibition at 4000 µM [1]: 17.9 ± 11.5%; inhibition at 4000 µM [3]: 51.4% |
